These results are taken from ChEMBL document CHEMBL1150174, “Lyngbyaloside B, a new glycoside macrolide from a Palauan marine cyanobacterium, Lyngbya sp” (J Nat Prod, 2002).

In one assay the test system is LoVo. Put plainly: Cytotoxicity against human LoVo cells. It counts as functional, cell-based.
The subject of another assay is KB. Put plainly: Cytotoxicity against human KB cells. It counts as functional, cell-based.

The term IC50 denotes the concentration that gives 50% inhibition. Lower therefore signals greater potency in that assay. `CO[C@@H]1[C@@H](OC)[C@@H](O)[C@H](O[C@H]2C[C@@]3(O)CC(=O)O[C@](C)(CC/C=C/C=C/Br)C[C@@H](O)[C@H](C)CC[C@H](O3)[C@@H]2C)O[C@H]1C` [LYNGBYALOSIDE B]: the IC50 in the assay on LoVo was 15 µM; in the assay with KB, 4.3 µM.
